The experiment concerns human carcino embryonic antigen (CEA). As to the kind of experiment: CEA-specific IgG1/IgG2a serum antibody ELISA after particle-mediated DNA immunization. As to conditions: Balb/c mice, sera four weeks after treatment. The class given is in vivo, mouse. The source says:
The adjuvant and the nucleic acid molecule containing the sequence encoding the antigen of interest were co-administered via particle-mediated delivery using a gene gun. The particular antigen used for this example was the human carcino embryonic antigen (“CEA”), a human tumor antigen widely used in experiments investigating cancer therapeutic treatments. […] Without an adjuvant, Th2 type CEA-specific antibodies (IgG1) are detected at levels more than twenty-fold higher than the levels of Th1 type CEA-specific antibodies (IgG2a) in Balb/c mice.
For this protocol, a plasmid construct containing a coding region for the CEA antigen under the control of the cytomegalovirus immediate early promoter (CMV) with the CMV intron A between the promoter and the coding region was used. To form the composition, 64 μg of the plasmid, which was designated WRG7083, in 120 μL of water was added to 32 milligrams of 0.9 micron gold beads in an Eppendorf tube, i.e., 2 μg DNA/mg gold. Next, 13.5 μL of ammonium acetate solution and 135 μL of isopropanol were added, and the tube was vortexed briefly. The mixture was incubated for 15 minutes at −20° C. to precipitate the DNA onto the gold. The DNA coated beads were pelleted by a ten second spin and the supernatants were removed. The gold/DNA pellets were washed four times by vortexing in 1 mL ethanol, microfuging ten seconds, and removing supernatants. […]

Here are results for one substance from patent publication US7699801B2, “Advanced genetic vaccines” (priority 1995, dated 2010).

Sequence of human carcino embryonic antigen (CEA) (P06731 35-676): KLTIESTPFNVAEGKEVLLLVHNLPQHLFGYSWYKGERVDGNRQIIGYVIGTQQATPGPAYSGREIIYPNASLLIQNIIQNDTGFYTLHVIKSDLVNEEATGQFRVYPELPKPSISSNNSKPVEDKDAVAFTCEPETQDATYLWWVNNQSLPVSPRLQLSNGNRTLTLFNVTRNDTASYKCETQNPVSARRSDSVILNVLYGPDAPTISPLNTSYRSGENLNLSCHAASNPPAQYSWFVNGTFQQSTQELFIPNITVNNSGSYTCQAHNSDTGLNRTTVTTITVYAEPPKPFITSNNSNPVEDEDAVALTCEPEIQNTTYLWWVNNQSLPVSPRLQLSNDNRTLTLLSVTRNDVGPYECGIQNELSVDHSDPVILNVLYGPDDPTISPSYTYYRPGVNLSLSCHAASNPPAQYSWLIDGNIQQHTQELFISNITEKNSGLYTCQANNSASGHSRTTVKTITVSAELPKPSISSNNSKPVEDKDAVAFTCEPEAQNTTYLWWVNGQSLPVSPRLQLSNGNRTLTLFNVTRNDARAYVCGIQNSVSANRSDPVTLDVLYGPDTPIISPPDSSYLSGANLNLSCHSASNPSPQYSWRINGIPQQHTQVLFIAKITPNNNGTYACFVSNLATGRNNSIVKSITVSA

With monophosphoryl lipid A [MPL], the “ratio of IgG1 to IgG2a CEA-specific antibodies” value runs as follows: (0.2 mg/mL MPL on WRG7083 DNA-coated gold particles, gene gun delivery) 4.5; (MPL stock swabbed on skin prior to gene gun delivery of WRG7083 DNA) “about 4.0”.
